# Data: patent US12605449B2, “Drug-clay mineral complex containing phospholipid and oral administration composition including same” (Korea Institute of Geoscience and Mineral Resources, priority 2020, dated 2026)
# Experiments:
# Assay type in all cases: physicochemical
# [1] = Camptothecin adsorption to bentonite (supernatant concentration); settings: camptothecin 0.25 mg/mL in 1 N HCl
# Procedure: The concentration of camptothecin (Tokyo Chemical Industry, TCI) was made at 0.25 mg/mL using a 100% 1 N HCl solvent and the drug and bentonite reacted with each other at various ratios shown in Table 6 below, and then the drug amount adsorbed to bentonite was indirectly measured by measuring the drug concentration of the supernatant.
# [2] = Ciprofloxacin adsorption to bentonite (pH and concentration dependence)
# [3] = Ciprofloxacin release test using a dialysis membrane (FaSSGF, FaSSIF, FaSSCoF); settings: complex weight ratio 1:5
# Excerpt: The release pattern according to the pH of the complex was confirmed through a release test using a dialysis membrane.
# [4] = Carbamazepine drug release test according to pH; settings: regardless of pH
# Excerpt: In addition, a pattern released at a constant rate at all pHs was shown, and since the release rate of carbamazepine is higher at high pH, it may be inferred that the drug may be easily released from the lower digestive tract.
smiles,measurement,setting,value
"CC[C@@]1(O)C(=O)OCc2c1cc1n(c2=O)Cc2cc3ccccc3nc2-1 [Camptothecin, (S)-4-ethyl-4-hydroxy-1H-pyrano-[3′,4′: 6,7]indolizinol[1,2-b]quinoline-3,14 (4H, 12H)-dione]",Supernatant concentration,[1],49.7 ± 0.3 µg/mL
"O=C(O)c1cn(C2CC2)c2cc(N3CCNCC3)c(F)cc2c1=O [ciprofloxacin, 1-cyclopropyl-6-fluoro-1,4-dihydro-4-oxo-7-(1-piperazinyl)-quinoline-3-carboxylic acid]",amount of drug adsorption per bentonite mass,"[2]; bentonite 0.5 mg/mL, ciprofloxacin 50-500 μg/mL, pH 1",≤ 300 mg/g
same,adsorption amount of ciprofloxacin according to pH,"[2]; ciprofloxacin 0.5 mg/mL, bentonite 5 mg/mL, pH 1 to 10, decreased above pH 7",high adsorption
same,drug adsorption rate,[2]; weight ratio of ciprofloxacin and bentonite 1:5,~100%
same,"release pattern in FaSSGF, FaSSIF, FaSSCoF",[3],rapidly released under FaSSGF
"NC(=O)N1c2ccccc2C=Cc2ccccc21 [Carbamazepine, 5H-dibenzo[b,f]azepine-5-carboxamide]",time within which most of the drug was released,[4],≤ 2 h
